Values quoted from earlier work as cited in patent US20090214446A1, “CYCLODEXTRIN INCLUSION COMPLEXES AND METHODS OF PREPARING SAME” (CARGILL, INCORPORATED, priority 2005, published 2009).

Details: octanol/water

log P | Structure (SMILES)
−1.34 | CC(=O)C(C)=O [diacetyl]
0.30 | CCc1occc(=O)c1O [ethyl maltol]

Structure (SMILES) | log P
C=C(C)[C@H]1CC=C(C)CC1 [limonene] | 4.83
